From US4155931A, “Ureylene phenylene anionic naphthalenesulfonic acids” (American Cyanamid Company, priority 1978, dated 1979)
Where a name gives a salt, the structure may show the parent alone.

Key:
[1] = target: activated human C1 (Homo sapiens, UniProt P09871); assay: Test Code 026 (C1 inhibitor): ability of activated human C1 to destroy fluid phase human C2 in the presence of C4; format: biochemical; settings: two-fold serial dilution assay, higher well number indicates higher activity
Description: (§1) An active inhibitor protects C2 from C1 and C4; (ii) Test Code 035 (C3-C9 inhibitor)--This test determines the ability of the late components of human complement (C3-C9) to lyse EAC 142 in the presence of appropriate dilutions of the test compound. An active inhibitor protects EAC 142 from lysis by human C3-C9; (iii) Test Code 036 (C-Shunt inhibitor)--In this test human erythrocytes rendered fragile are lysed in autologous serum via the shunt pathway activated by cobra venom factor in the presence of appropriate dilutions of the test compound. Inhibition of the shunt pathway results in failure of lysis; (iv) Forssman Vasculitis Test--Here, the well known complement dependent lesion, Forssman vasculitis, is produced in guinea pigs by intradermal injection of rabbit anti-Forssman antiserum. The lesion is measured in terms of diameter, edema and hemorrhage and the extent to which a combined index of these is inhibited by prior intraperitoneal injection of the test compound at 200 mg/kg is then reported, unless otherwise stated; (v) Forssman Shock Test--Lethal shock is produced in guinea pigs by an i.v. injection of anti-Forssman antiserum and the harmonic mean death time of treated guinea pigs is compared with that of simultaneous controls; (vi) Complement Level Reduction Test--In this test, the above dosed guinea pigs, or others, are bled for serum and the complement level is determined in undiluted serum by the capillary tube method of U.S. Pat. No. 3,876,376 and compared to undosed control guinea pigs; and (vii) Cap 50 Test--Here, appropriate amounts of the test compound are added to a pool of guinea pig serum in vitro, after which the undiluted serum capillary tube assay referred to above is run. The concentration of compound inhibiting 50% is reported.
(§2) **Activity in wells a serial dilution assay. Higher well number indicates
(§3) higher activity. The serial dilutions are two-fold.

[2] = system: late components of human complement (C3-C9); assay: Test Code 035 (C3-C9 inhibitor, C-Late): lysis of EAC 142 by late components of human complement; format: cell-based; settings: two-fold serial dilution assay
Description: as §1, §2, §3

[3] = reported in literature; cited from earlier work
[4] = system: complement system; settings: reported in literature or known; cited from earlier work
[5] = system: whole complement; assay: Complement Level Reduction Test: whole complement in serum of dosed guinea pigs, capillary tube assay; format: in vivo; settings: guinea pig, intraperitoneal, 200 mg/kg
[6] = system: shunt pathway; assay: Test Code 036 (C-Shunt inhibitor): lysis of fragile human erythrocytes in autologous serum via shunt pathway activated by cobra venom factor; format: cell-based; settings: Table II (intermediates); two-fold serial dilution assay
Description: as §1, §2, §3

[7] = system: total hemolytic complement activity of human serum; settings: in vitro and in vivo, reported in literature; cited from earlier work
[8] = Table I, higher well number indicates higher activity

Row | Molecule | Cl 026 (C1 inhibitor) ([1]; Table I) | C-Late 035 (C3-C9 inhibitor) [2, 8] | Cl 026 (C1 inhibitor) ([1]; Table II (intermediates)) | C-Late 035 (C3-C9 inhibitor) ([2]; Table II (intermediates)) | Shunt Inhibition 036 [6] | also measured
1 | Cc1cc(C)c(S(=O)(=O)Nc2cc(S(=O)(=O)[O-])cc3cc(S(=O)(=O)[O-])cc(S(=O)(=O)[O-])c23)cc1NC(=O)c1ccc(NC(=O)Nc2ccc(C(=O)Nc3cc(S(=O)(=O)Nc4cc(S(=O)(=O)[O-])cc5cc(S(=O)(=O)[O-])cc(S(=O)(=O)[O-])c45)c(C)cc3C)c(S(=O)(=O)[O-])c2)cc1S(=O)(=O)[O-].[Na+].[Na+].[Na+].[Na+].[Na+].[Na+].[Na+].[Na+] [8,8'-[Ureylenebis[(2-sulfo-4,1-phenylenecarbonyl)imino(4,6-dimethyl-3,1-phenylenesulfonyl)imino]]di-1,3,6-naphthalenetrisulfonic acid, octasodium salt] | +5 Wells | +2 Wells |  |  |  | 
2 | NC[C@H]1CC[C@H](C(=O)O)CC1 [tranexamic acid] |  |  |  |  |  | use in treatment of hereditary angioneurotic edema [3]: used with success in the treatment of hereditary angioneurotic edema
3 | Cc1ccc(C(=O)Nc2ccc(S(=O)(=O)O)c3cc(S(=O)(=O)O)cc(S(=O)(=O)O)c23)cc1NC(=O)c1cccc(NC(=O)Nc2cccc(C(=O)Nc3cc(C(=O)Nc4ccc(S(=O)(=O)O)c5cc(S(=O)(=O)O)cc(S(=O)(=O)O)c45)ccc3C)c2)c1 [Suramin, reference compound] | +4 Wells | +2 Wells |  |  |  | complement inhibitor / anticomplementary effect [4]: moderately active as a complement inhibitor
4 | Cc1ccc(C(=O)Nc2ccc(S(=O)(=O)O)c3cc(S(=O)(=O)O)cc(S(=O)(=O)O)c23)cc1NC(=O)c1cc(NC(=O)Nc2cc(C(=O)O)cc(C(=O)Nc3cc(C(=O)Nc4ccc(S(=O)(=O)O)c5cc(S(=O)(=O)O)cc(S(=O)(=O)O)c45)ccc3C)c2)cc(C(=O)O)c1 [5,5"-Ureylenebis[2'-methyl-5"-[(4,6,8-trisulfo-1-naphthyl)carbamoyl]isophthalanilic acid], octasodium salt] | +5 Wells | +2 Wells |  |  |  | % Inhibition ([5]; 30 minutes): -17%; % Inhibition ([5]; 60 minutes): -50%; % Inhibition ([5]; 120 minutes): -57%
5 | Cc1ccc(C(=O)Nc2cc(C(=O)O)cc(C(=O)Nc3ccc(S(=O)(=O)O)c4cc(S(=O)(=O)O)cc(S(=O)(=O)O)c34)c2)cc1N [5-(3-Amino-p-toluamido)-N-(4,6,8-trisulfo-1-naphthyl)isophthalamic acid, trisodium salt] |  |  | +3 Wells | N | N | 
6 | Cc1ccc(C(=O)Nc2ccc(S(=O)(=O)O)c3cc(S(=O)(=O)O)cc(S(=O)(=O)O)c23)cc1NC(=O)c1ccc(N)cc1S(=O)(=O)O [8-[3-(4-Amino-2-sulfobenzamido)-p-toluamido]-1,3,5-naphthalenetrisulfonic acid, tetrasodium salt] |  |  | +2 Wells | N | N | 
7 | Cc1ccc(NC(=O)c2ccc(NC(=O)Nc3ccc(C(=O)Nc4ccc(C)c(S(=O)(=O)Nc5cc(S(=O)(=O)O)cc6cc(S(=O)(=O)O)cc(S(=O)(=O)O)c56)c4)c(S(=O)(=O)O)c3)cc2S(=O)(=O)O)cc1S(=O)(=O)Nc1cc(S(=O)(=O)O)cc2cc(S(=O)(=O)O)cc(S(=O)(=O)O)c12 [8,8'-[Ureylenebis[[(2-sulfo-4,1-phenylenecarbonyl)imino](2-methyl-4,1-phenylene)sulfonyl]imino]]di-1,3,6-naphthalenetrisulfonic acid, octasodium salt] | +4 Wells | +2 Wells |  |  |  | 
8 | Cc1ccc(C(=O)Nc2ccc(S(=O)(=O)[O-])c3cc(S(=O)(=O)[O-])cc(S(=O)(=O)[O-])c23)cc1NC(=O)c1cc(NC(=O)Nc2cc(C(=O)O)cc(C(=O)Nc3cc(C(=O)Nc4ccc(S(=O)(=O)[O-])c5cc(S(=O)(=O)[O-])cc(S(=O)(=O)[O-])c45)ccc3C)c2)cc(C(=O)O)c1.[Na+].[Na+].[Na+].[Na+].[Na+].[Na+] [5,5"-Ureylenebis[2'-methyl-5'-[(4,6,8-trisulfo-1-naphthyl)carbamoyl]isophthalanilic acid], hexasodium salt] | +5 Wells | +2 Wells |  |  |  | 
9 | Nc1ccc2cc(S(=O)(=O)[O-])cc(O)c2c1N=Nc1ccc(NC(=O)Nc2ccc(N=Nc3c(N)ccc4cc(S(=O)(=O)[O-])cc(O)c34)c(S(=O)(=O)[O-])c2)cc1S(=O)(=O)[O-].[Na+].[Na+].[Na+].[Na+] [chlorazol fast pink, 3,3'-ureylenebis[6-(2-amino-8-hydroxy-6-sulfo-1-naphthylazo)benzenesulfonic acid], tetrasodium salt] |  |  |  |  |  | complement inhibitor / anticomplementary effect [4]: anticomplementary effect
10 | Cc1ccc(C(=O)Nc2ccc(S(=O)(=O)[O-])c3cc(S(=O)(=O)[O-])cc(S(=O)(=O)[O-])c23)cc1NC(=O)c1ccc(NC(=O)Nc2ccc(C(=O)Nc3cc(C(=O)Nc4ccc(S(=O)(=O)[O-])c5cc(S(=O)(=O)[O-])cc(S(=O)(=O)[O-])c45)ccc3C)c(S(=O)(=O)[O-])c2)cc1S(=O)(=O)[O-].[Na+].[Na+].[Na+].[Na+].[Na+].[Na+].[Na+].[Na+] [8,8'-[Ureylenebis[[(2-sulfo-4,1-phenylenecarbonyl)imino]-(4-methyl-3,1-phenylenecarbonyl)imino]]di-1,3,5-naphthalenetrisulfonic acid, octasodium salt] | +3 Wells | +1 Wells |  |  |  | 
11 | heparin |  |  |  |  |  | complement inhibitor / anticomplementary effect [4]: anticomplementary effect
12 | pentosan-polysulfoester |  |  |  |  |  | anticomplementary activity of human serum (reduction in total hemolytic complement activity) [7]: anticomplementary activity of human serum
13 | NCCCCCC(=O)O [epsilon-aminocaproic acid] |  |  |  |  |  | use in treatment of hereditary angioneurotic edema [3]: used with success in the treatment of hereditary angioneurotic edema
14 | Cc1ccc(NC(=O)c2ccc(N)cc2S(=O)(=O)O)cc1S(=O)(=O)Nc1cc(S(=O)(=O)O)cc2cc(S(=O)(=O)O)cc(S(=O)(=O)O)c12 [8-[5-(4-Amino-2-sulfobenzamido)-o-toluenesulfonamido]-1,3,6-naphthalenetrisulfonic acid, tetrasodium salt] |  |  | +4 Wells | N | N | 
15 | Cc1ccc(S(=O)(=O)Nc2ccc(S(=O)(=O)[O-])c3cc(S(=O)(=O)[O-])cc(S(=O)(=O)[O-])c23)cc1NC(=O)c1cc(N)cc(C(=O)O)c1.[Na+].[Na+].[Na+] [5-Amino-2'-methyl-5'-(4,6,8-trisulfo-1-naphthylsulfamoyl)-isophthalanilic acid, trisodium salt] |  |  | +2 Wells | N | N | 
16 | Cc1ccc(C(=O)Nc2cc(C(=O)O)cc(C(=O)Nc3ccc(S(=O)(=O)O)c4cc(S(=O)(=O)O)cc(S(=O)(=O)O)c34)c2)cc1NC(=O)Nc1cc(C(=O)Nc2cc(C(=O)O)cc(C(=O)Nc3ccc(S(=O)(=O)O)c4cc(S(=O)(=O)O)cc(S(=O)(=O)O)c34)c2)ccc1C [5,5'-Ureylenebis[(4-methyl-3,1-phenylenecarbonyl)imino]bis[N-(4,6,8-trisulfo-1-naphthyl)isophthalamic acid], hexasodium slt] | +5 Wells | +2 Wells |  |  |  | 
17 | Nc1ccc(C(=O)Nc2cccc(S(=O)(=O)Nc3cc(S(=O)(=O)O)cc4cc(S(=O)(=O)O)cc(S(=O)(=O)O)c34)c2)c(S(=O)(=O)O)c1 [8-[N^3-(4-Amino-2-sulfobenzoyl)metanilamido]-1,3,6-naphthalenetrisulfonic acid, tetrasodium salt] |  |  | +3 Wells | N | N | 
18 | Cc1ccc(C(=O)Nc2ccc(S(=O)(=O)O)c3cc(S(=O)(=O)O)cc(S(=O)(=O)O)c23)cc1NC(=O)c1cc(N)cc(C(=O)O)c1 [5-Amino-2'-methyl-5'-[(4,6,8-trisulto-1-naphthyl)carbamoyl]isophthalanilic acid, trisodium salt] |  |  | +2 Wells | N | N | 
